Assay results as given in publication PMC6691785, “Computer-aided design and synthesis of 3-carbonyl-5-phenyl-1H-pyrazole as highly selective and potent BRAFV600E and CRAF inhibitor” (Journal of Enzyme Inhibition and Medicinal Chemistry, 2019).

Experiments:
CRAF [1] = target: T1, CRAF (Homo sapiens, UniProt P04049); experiment: Enzymatic activity (IC50) on CRAF; type: biochemical; settings: for IC50: enzymatic activity
Method: (§1) The IC50 values for BRAFV600E and CRAF were measured for each of the 12 compounds synthesised (Table 1). The compounds were all designed as 1, 3, 5-substituted benzyl group hydrophobic tails to maintain the selectivity of the previous series.

BRAFV600E [2] = target: T2, BRAFV600E (Homo sapiens, UniProt P15056, V600E); experiment: Enzymatic activity (IC50) on BRAFV600E; type: biochemical; settings: for IC50: enzymatic activity; for times more potent for BRAFV600E than the previous series: versus N-(3-(3-alkyl-1H-pyrazol-5-yl)phenyl)-aryl amide derivatives
T2 sequence (P15056 whole entry V600E): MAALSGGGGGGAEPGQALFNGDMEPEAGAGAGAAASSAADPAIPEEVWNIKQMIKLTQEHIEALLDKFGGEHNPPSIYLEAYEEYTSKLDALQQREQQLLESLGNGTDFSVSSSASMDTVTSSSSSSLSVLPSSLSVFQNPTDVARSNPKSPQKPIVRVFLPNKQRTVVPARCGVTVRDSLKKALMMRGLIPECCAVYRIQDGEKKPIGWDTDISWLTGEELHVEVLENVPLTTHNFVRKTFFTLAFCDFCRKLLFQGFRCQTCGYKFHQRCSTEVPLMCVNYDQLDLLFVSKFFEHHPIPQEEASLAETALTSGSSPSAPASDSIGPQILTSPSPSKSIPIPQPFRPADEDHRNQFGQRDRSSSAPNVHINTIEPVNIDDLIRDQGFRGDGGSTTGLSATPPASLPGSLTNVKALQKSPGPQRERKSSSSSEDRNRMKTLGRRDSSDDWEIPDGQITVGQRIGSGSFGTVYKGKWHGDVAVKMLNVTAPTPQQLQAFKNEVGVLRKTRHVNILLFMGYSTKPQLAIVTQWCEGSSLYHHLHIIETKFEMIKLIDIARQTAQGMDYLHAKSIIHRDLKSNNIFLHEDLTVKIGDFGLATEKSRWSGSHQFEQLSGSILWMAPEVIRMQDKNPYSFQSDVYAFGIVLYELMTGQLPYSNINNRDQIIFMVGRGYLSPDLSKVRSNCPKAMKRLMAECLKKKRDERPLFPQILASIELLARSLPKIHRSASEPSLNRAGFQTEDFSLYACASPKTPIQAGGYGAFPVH
Method: as §1

BRAFWT = BRAFWT (Homo sapiens, UniProt P15056); experiment: Enzymatic activity (IC50) on BRAFWT; type: biochemical
Sequence of BRAFWT (P15056 whole entry): as the sequence (P15056 whole entry V600E) above, with E600V counted along it
Method: (§2) Next, we used kinase panel screening in duplicate for compound 23b over 35 different kinases at a single-dose concentration of 10 μM (Table 2). The compound was indeed a selective BRAFV600E and CRAF inhibitor with an excellent selectivity profile. This compound has an inhibitory activity of more than 90% on CRAF and BRAF V600E at a concentration of 10 μM; the inhibition activity was less than 20% for most other kinases, including wild-type BRAF. We further determined the IC50 value of 23b on wild-type BRAF to be over than 20 μM, where we could confirm selectivity (Table 3). In order to investigate the effect of 23b in living cells, the human colon cancer cell line […] expressing wild-type BRAF and the malignant melanoma A375 cell line expressing BRAFV600E were treated with increasing concentrations of 23b.

[3] = system: human colon cancer cell line SW620 expressing wild-type BRAF; experiment: MTT assay, SW620 cells; type: cell-based
Method: as §2

35 different kinases = experiment: Kinase panel screening, single dose 10 μM, other kinases of the panel; type: biochemical; settings: in duplicate, most other kinases of the 35-kinase panel
Method: as §2
(§3) We designed and synthesized selective, efficacious inhibitors for BRAFV600E and CRAF by in silico modeling using the Maestro programme.[20] […] We attempted kinase panel screening for compound 23b over 35 different kinases at a single-dose concentration of 10 μM (Table 2, performed in duplicate). The compound was, indeed, a selective BRAFV600E and CRAF inhibitor with an excellent selectivity profile. This compound has an inhibitory activity of 99% on BRAF V600E and CRAF at this concentration. The inhibition activity was less than 20% in most other kinases, including BRAFWT.

BRAFV600E [4] = target: T2, BRAFV600E; experiment: Kinase panel screening, single dose 10 μM, BRAF V600E; type: biochemical; settings: in duplicate, read-out: inhibitory activity on BRAF V600E
Method: as §2, §3

[5] = system: malignant melanoma A375 cell line expressing BRAFV600E; experiment: MTT assay, A375 cells; type: cell-based; settings: Homo sapiens, A-375
Method: as §2

wild-type BRAF = wild-type BRAF (Homo sapiens, UniProt P15056); experiment: Kinase panel screening, single dose 10 μM, wild-type BRAF; type: biochemical; settings: in duplicate
Sequence of wild-type BRAF (P15056 whole entry): as the sequence (P15056 whole entry V600E) above, with E600V counted along it
Method: as §2, §3

CRAF [6] = target: T1, CRAF; experiment: Kinase panel screening, single dose 10 μM, CRAF; type: biochemical; settings: in duplicate, read-out: inhibitory activity on CRAF
Method: as §2, §3

CRAF [7] = target: T1, CRAF; settings: selectivity over BRAFWT; cited from earlier work
BRAFV600E [8] = target: T2, BRAFV600E; settings: selectivity over BRAFWT; cited from earlier work

T1 sequence (P04049 whole entry): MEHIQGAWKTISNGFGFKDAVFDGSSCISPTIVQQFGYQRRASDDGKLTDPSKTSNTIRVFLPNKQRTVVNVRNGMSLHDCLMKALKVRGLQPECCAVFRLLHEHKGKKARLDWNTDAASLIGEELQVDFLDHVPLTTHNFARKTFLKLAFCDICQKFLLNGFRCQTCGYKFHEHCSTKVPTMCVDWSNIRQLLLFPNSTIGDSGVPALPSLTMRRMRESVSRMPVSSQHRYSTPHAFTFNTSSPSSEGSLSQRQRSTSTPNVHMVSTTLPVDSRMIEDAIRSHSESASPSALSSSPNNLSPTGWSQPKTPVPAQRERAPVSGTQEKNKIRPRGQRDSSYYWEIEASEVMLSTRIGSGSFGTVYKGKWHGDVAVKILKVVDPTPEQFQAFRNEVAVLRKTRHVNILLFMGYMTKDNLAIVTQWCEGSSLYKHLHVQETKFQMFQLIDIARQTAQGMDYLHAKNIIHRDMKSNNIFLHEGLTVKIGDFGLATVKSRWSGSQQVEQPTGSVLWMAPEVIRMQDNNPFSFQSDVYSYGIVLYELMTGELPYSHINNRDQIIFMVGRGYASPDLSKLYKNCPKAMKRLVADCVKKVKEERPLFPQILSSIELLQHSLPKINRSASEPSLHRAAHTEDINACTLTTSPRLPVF

Compound	IC50 (CRAF [1])	IC50 (BRAFV600E [2])	IC50 (BRAFWT)	further results
Cc1nccn1-c1cc(C(=O)Nc2cccc(-c3cc(C(=O)NCCN4CCNCC4)[nH]n3)c2)cc(C(F)(F)F)c1 [Compound 22b]	830 nM	1260 nM	12900 nM	
O=C(Nc1cccc(-c2cc(C(=O)OCCN3CCCCC3)[nH]n2)c1)c1cc(N2CCOCC2)cc(C(F)(F)F)c1 [Compound 24]	210 nM	400 nM	> 20000 nM	
Cc1nccn1-c1cc(C(=O)Nc2cccc(-c3cc(C(=O)NCCN4CCOCC4)[nH]n3)c2)cc(C(F)(F)F)c1 [Compound 20b]	590 nM	980 nM	13100 nM	
O=C(Nc1cccc(-c2cc(C(=O)NCCN3CCOCC3)[nH]n2)c1)c1cc(N2CCOCC2)cc(C(F)(F)F)c1 [Compound 20a]	1500 nM	2800 nM	16400 nM	
Cc1nccn1-c1cc(C(=O)Nc2cccc(-c3cc(C(=O)OCCN4CCOCC4)[nH]n3)c2)cc(C(F)(F)F)c1 [Compound 23b]	20 nM	100 nM	> 20000 nM	GI50 ([3]; Homo sapiens, SW-620, SW620 cells expressing BRAFWT): > 10000 nM; inhibition of the proliferation ([3]; increasing concentrations, SW620 cells expressing BRAFWT): not in the cells expressing BRAFWT; inhibition activity for most other kinases (35 different kinases): less than 20%; times more potent for CRAF than the previous series (CRAF [1]; versus N-(3-(3-alkyl-1H-pyrazol-5-yl)phenyl)-aryl amide derivatives): 5 times; times more potent for BRAFV600E than the previous series (BRAFV600E [2]): 7 times; times more potent for BRAFV600E than the previous series (BRAFV600E [2]; listed as 23 b): seven; inhibition at 10 µM (BRAFV600E [4]): > 90%; GI50 [5]: 70 nM; inhibition at 10 µM (wild-type BRAF): < 20%; inhibition at 10 µM (CRAF [6]): > 90%
O=C(Nc1cccc(-c2cc(C(=O)NCCN3CCNCC3)[nH]n2)c1)c1cc(N2CCOCC2)cc(C(F)(F)F)c1 [Compound 22a]	1600 nM	2090 nM	> 20000 nM	
CC(C)c1cc(-c2cccc(NC(=O)c3cc(N4CCN(C)CC4)cc(C(F)(F)F)c3)c2)[nH]n1 [Compound 2, N-(3–(3-alkyl-1H-pyrazol-5-yl)phenyl)-aryl amide]				times more potent on CRAF than on BRAFWT (CRAF [7]): 126 times; times more potent on BRAFV600E than on BRAFWT (BRAFV600E [8]): 20 times
CN1CCN(c2cc(C(=O)Nc3cccc(-c4cc(C(=O)NCCN5CCOCC5)[nH]n4)c3)cc(C(F)(F)F)c2)CC1 [Compound 20d]	1150 nM	2700 nM	> 20000 nM	

Continued, in another order:

IC50 (CRAF [1])	IC50 (BRAFV600E [2])	IC50 (BRAFWT)	Compound	further results
60 nM	330 nM	> 20000 nM	Cc1cn(-c2cc(C(=O)Nc3cccc(-c4cc(C(=O)OCCN5CCOCC5)[nH]n4)c3)cc(C(F)(F)F)c2)cn1 [Compound 23c]	
580 nM	1510 nM		Cc1cn(-c2cc(C(=O)Nc3cccc(-c4cc(C(=O)NCCN5CCNCC5)[nH]n4)c3)cc(C(F)(F)F)c2)cn1 [Compound 22c]	
580 nM	910 nM	14700 nM	Cc1cn(-c2cc(C(=O)Nc3cccc(-c4cc(C(=O)NCCN5CCOCC5)[nH]n4)c3)cc(C(F)(F)F)c2)cn1 [Compound 20c]	
130 nM	680 nM	> 20000 nM	O=C(Nc1cccc(-c2cc(C(=O)OCCN3CCOCC3)[nH]n2)c1)c1cc(N2CCOCC2)cc(C(F)(F)F)c1 [Compound 23a]	
160 nM	680 nM	> 20000 nM	CN1CCN(c2cc(C(=O)Nc3cccc(-c4cc(C(=O)OCCN5CCOCC5)[nH]n4)c3)cc(C(F)(F)F)c2)CC1 [Compound 23d]	
